# Target: T1, human P2X4 (Homo sapiens, UniProt Q99571)
# T1 sequence (Q99571 1-388): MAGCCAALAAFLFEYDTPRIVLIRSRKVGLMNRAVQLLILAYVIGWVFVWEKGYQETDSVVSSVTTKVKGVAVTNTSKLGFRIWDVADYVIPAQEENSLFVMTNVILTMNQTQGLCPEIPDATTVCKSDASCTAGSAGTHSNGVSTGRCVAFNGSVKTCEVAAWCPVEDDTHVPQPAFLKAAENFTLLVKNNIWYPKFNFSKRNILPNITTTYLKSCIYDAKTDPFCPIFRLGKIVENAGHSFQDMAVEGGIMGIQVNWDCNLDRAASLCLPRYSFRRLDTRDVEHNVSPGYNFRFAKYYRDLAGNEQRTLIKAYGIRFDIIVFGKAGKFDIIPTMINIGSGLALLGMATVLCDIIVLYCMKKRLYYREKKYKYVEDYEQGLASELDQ
# Experiment: Human P2X4 HEK Cell FLIPR Assay
# Format: cell-based
# Conditions: agonist Bz-ATP at EC80; for Emax: HEK293, HEK293 cells, percentage of maximal inhibition, read-out: Human P2X4 HEK Cells (FLIPR Assay) avg Efficacy [%]; for IC50: HEK293 cells, individual values listed where some fall outside detection range
# How it was run: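 HEK293 cells stably expressing human P2X4, Fluo8-AM loaded 30 min at 37° C, then compound 30 min at room temperature (0.5% DMSO, pH 7.4 buffer with 1.8 mM CaCl2). Bz-ATP at its daily-determined EC80 added; calcium fluorescence read over 120 sec; IC50 from peak RFU normalized to agonist control, triplicates.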
Compound,Emax [%],IC50 [µM]
"NS(=O)(=O)c1cc(NC(=O)Cc2ccccc2Cl)ccc1-c1cc(C2CC2)on1 [Example 438, 2-(2-Chlorophenyl)-N-[4-(5-cyclopropyl-1,2-oxazol-3-yl)-3-sulfamoylphenyl]acetamide]",75,0.018
"NS(=O)(=O)c1cc(NC(=O)Cc2ccccc2Cl)ccc1-c1cnc(C2CC2)o1 [Example 439, 2-(2-Chlorophenyl)-N-[4-(2-cyclopropyl-1,3-oxazol-5-yl)-3-sulfamoylphenyl]acetamide]",94,0.004
"NS(=O)(=O)c1cc(NC(=O)Cc2ccccc2Cl)ccc1-n1cc(C(=O)N2CC(F)(F)C2)cn1 [Example 440, 2-(2-Chlorophenyl)-N-(4-{4-[(3,3-difluoroazetidin-1-yl)carbonyl]-1H-pyrazol-1-yl}-3-sulfamoylphenyl)acetamide]",96,0.112
"NS(=O)(=O)c1cc(NC(=O)Cc2ccccc2Cl)ccc1-n1cc(C(=O)N2CCC2)cn1 [Example 441, N-{4-[4-(Azetidin-1-ylcarbonyl)-1H-pyrazol-1-yl]-3-sulfamoylphenyl}-2-(2-chlorophenyl)acetamide]",91,0.185
"NS(=O)(=O)c1cc(NC(=O)Cc2c(F)cccc2Cl)ccc1-c1cncc(C(F)(F)F)c1 [Example 445, 2-(2-Chloro-6-fluorophenyl)-N-{3-sulfamoyl-4-[5-(trifluoromethyl)pyridin-3-yl]phenyl}acetamide]",71,0.06
"NS(=O)(=O)c1cc(NC(=O)Cc2ccc(Cl)cc2Cl)ccc1-c1cncc(C(F)(F)F)c1 [Example 448, 2-(2,4-Dichlorophenyl)-N-{3-sulfamoyl-4-[5-(trifluoromethyl)pyridin-3-yl]phenyl}acetamide]",63,0.472
"NS(=O)(=O)c1cc(NC(=O)Cc2ccc(F)cc2F)ccc1-c1cncc(C(F)(F)F)c1 [Example 450, 2-(2,4-Difluorophenyl)-N-{3-sulfamoyl-4-[5-(trifluoromethyl)pyridin-3-yl]phenyl}acetamide]",72,0.148

# Continued, values first:
Emax [%],IC50 [µM],Compound
89,0.181,"NS(=O)(=O)c1cc(NC(=O)Cc2ccccc2Cl)ccc1-n1cc(C(=O)N2CCCC2)cn1 [Example 442, 2-(2-Chlorophenyl)-N-{4-[4-(pyrrolidin-1-ylcarbonyl)-1H-pyrazol-1-yl]-3-sulfamoylphenyl}acetamide]"
84,0.122,"NS(=O)(=O)c1cc(NC(=O)Cc2ccccc2Cl)ccc1-n1cc(C(=O)N2CCC(F)(F)C2)cn1 [Example 443, 2-(2-Chlorophenyl)-N-(4-{4-[(3,3-difluoropyrrolidin-1-yl)carbonyl]-1H-pyrazol-1-yl}-3-sulfamoylphenyl)acetamide]"
77,0.635,"NS(=O)(=O)c1cc(NC(=O)Cc2ccc(Cl)cc2)ccc1-c1cncc(C(F)(F)F)c1 [Example 444, 2-(4-Chlorophenyl)-N-{3-sulfamoyl-4-[5-(trifluoromethyl)pyridin-3-yl]phenyl}acetamide]"
76,0.621,"NS(=O)(=O)c1cc(NC(=O)Cc2ccc(C(F)(F)F)cc2)ccc1-c1cncc(C(F)(F)F)c1 [Example 446, N-{3-Sulfamoyl-4-[5-(trifluoromethyl)pyridin-3-yl]phenyl}-2-[4-(trifluoromethyl)phenyl]acetamide]"
68,1.02,"NS(=O)(=O)c1cc(NC(=O)Cc2cccc(F)c2)ccc1-c1cncc(C(F)(F)F)c1 [Example 447, 2-(3-Fluorophenyl)-N-{3-sulfamoyl-4-[5-(trifluoromethyl)pyridin-3-yl]phenyl}acetamide]"
73,0.135,"NS(=O)(=O)c1cc(NC(=O)Cc2ccccc2Br)ccc1-c1cncc(C(F)(F)F)c1 [Example 449, 2-(2-Bromophenyl)-N-{3-sulfamoyl-4-[5-(trifluoromethyl)pyridin-3-yl]phenyl}acetamide]"

# Source: patent US11524938B2, “Aromatic sulfonamide derivatives” (Bayer Pharma Aktiengesellschaft, priority 2016, dated 2022)
